“Also recorded” adds a separate entry of the source.
These compounds were tested against T1, TAS2R14 (Homo sapiens, UniProt Q9NYV8) (assay: In vitro calcium imaging assay on cloned TAS2R14 in transfected HEK293T cells). Details: not given.
T1 construct: expressed in transfected cells; host or cells: HEK293T
T1 sequence (Q9NYV8 1-317): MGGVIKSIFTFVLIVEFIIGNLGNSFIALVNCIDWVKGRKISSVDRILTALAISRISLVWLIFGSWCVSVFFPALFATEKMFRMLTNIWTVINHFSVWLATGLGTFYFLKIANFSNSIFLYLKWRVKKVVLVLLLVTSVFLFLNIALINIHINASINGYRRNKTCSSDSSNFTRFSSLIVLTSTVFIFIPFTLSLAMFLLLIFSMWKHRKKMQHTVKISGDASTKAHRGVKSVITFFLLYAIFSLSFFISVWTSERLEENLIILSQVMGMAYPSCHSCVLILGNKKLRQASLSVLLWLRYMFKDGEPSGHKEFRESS
Assay type: cell-based
Description: (§1) Pure phytochemicals were submitted to in vitro assays with a platform of twenty cloned receptors of the bitter taste TAS2R family and four receptors of the TRP family related to the perception of taste and somatosensory sensations. All experiments have been repeated three times, each time with four replicates. […] For simplicity, only those bitter taste receptors having reproducible positive assay, namely TASR10, 14 and 49, are reported (Table 1).
(§2) For those compounds showing activity on one or more receptor(s), the concentration/response curves were plotted and the EC50 calculated.
(§3) For the biological tests, several compounds were purchased as references from different suppliers (Sigma Aldrich, ChromaDex, Irvine, CA, USA, and Tocris Bioscience, Bristol, UK) and dissolved in assay buffer (130 mM NaCl, 5 mM KCl, 1 mM MgCl2, 2 mM CaCl2, 5 mM NaHCO3 and 20 mM HEPES, pH 7.4) or in a mixture of assay buffer and DMSO, never exceeding a final DMSO concentration of 0.5% (v/v) to avoid toxic effects and possible artefacts on transfected cells.
(§4) All human TAS2R and G15Gi1 cDNAs were produced as reported in Bassoli et al. cDNAs for human TRPA1-M5-M8-V1-V4 were cloned into a pcDNA6 expression vector (Invitrogen-Thermo Fisher, Waltham, MA, USA).
(§5) All experiments were performed using HEK293T cells (ATCC).
(§6) For the bitter platform experiments, cells were cultured, transfected and analyzed as previously described.
(§7) For the bitter platform experiments, data analyses were performed as previously described.
(§8) For the calculation of concentration-response curves, responses were calculated as the difference between maximal and minimal relative fluorescence unit (RFU) values in a selected time window (11–60 s) and were normalized to the basal well fluorescence (Time Point 1, before compound injection) in order to compensate for differences in cell density (∆F/F0). All of the experiments have been repeated three times, each time with four replicates. All of the results are averages of at least four replicates. Raw data are available in Supplementary Material, Figures S3–S6.
In the case of `COc1c2ccoc2cc2oc(=O)ccc12` [Compound 3, bergapten], the “Activity on TAS2R14 (in words)” value is reported as “inactive”.
`COc1c2occc2cc2ccc(=O)oc12` [Compound 4, xanthotoxin] was tested, and the EC50 was ≥ 10.8 µM.
`COc1c2ccoc2c(OC)c2oc(=O)ccc12` [Compound 5, isopimpinellin] was tested, and the “Activity on TAS2R14 (in words)” value was “responded”.
`COc1ccc2c(OC)c3ccoc3nc2c1OC` [Compound 8, skimmianine] was tested, and the “Activity on TAS2R14 (in words)” value was “selectively activate”.

Same assay, conditions: concentration/response curve; values with ≥ estimated, curve did not saturate; read-out: EC50 TAS2R14
For `COc1c2ccoc2c(OC)c2oc(=O)ccc12` [Compound 5, isopimpinellin], the EC50 was 11.1 µM.
In the case of `COc1ccc2c(OC)c3ccoc3nc2c1OC` [Compound 8, skimmianine], the EC50 is reported as ≥ 15.8 µM.

Same assay, conditions: single dose, qualitative
For `C[C@@H]1O[C@@H](OC[C@H]2O[C@@H](Oc3c(-c4ccc(O)c(O)c4)oc4cc(O)cc(O)c4c3=O)[C@H](O)[C@@H](O)[C@@H]2O)[C@H](O)[C@H](O)[C@H]1O` [Compound 1, rutin], the TAS2R14 screening result was “−”.
`C=CC(C)(C)c1cc2cc3c(cc2oc1=O)OC(C(C)(C)OC(C)=O)C3` (centres unmarked) [Compound 2, rutamarin] was tested, and the TAS2R14 screening result was “−”.
`COc1c2ccoc2cc2oc(=O)ccc12` [Compound 3, bergapten] was tested, and the TAS2R14 screening result was “−”.
In the case of `COc1c2occc2cc2ccc(=O)oc12` [Compound 4, xanthotoxin], the TAS2R14 screening result is reported as “+”.
`COc1c2ccoc2c(OC)c2oc(=O)ccc12` [Compound 5, isopimpinellin] was tested, and the TAS2R14 screening result was “+”.
`COc1cc2nc3occc3c(OC)c2cc1OC` [Compound 7, kokusaginin] was tested, and the TAS2R14 screening result was “−”.
For `COc1ccc2c(OC)c3ccoc3nc2c1OC` [Compound 8, skimmianine], the TAS2R14 screening result was “+”.
`CCCCCCCCCC(C)=O` [Compound 9, 2-undecanone] was tested, and the TAS2R14 screening result was “−”.
For `CCCCCCCC(C)=O` [Compound 10, 2-nonanone], the TAS2R14 screening result was “−”.

These compounds were tested against T2, TAS2R49 (Homo sapiens, UniProt P59543) (assay: In vitro calcium imaging assay on cloned TAS2R49 in transfected HEK293T cells). Details: not given.
T2 construct: expressed in transfected cells; host or cells: HEK293T
T2 sequence (P59543 1-309): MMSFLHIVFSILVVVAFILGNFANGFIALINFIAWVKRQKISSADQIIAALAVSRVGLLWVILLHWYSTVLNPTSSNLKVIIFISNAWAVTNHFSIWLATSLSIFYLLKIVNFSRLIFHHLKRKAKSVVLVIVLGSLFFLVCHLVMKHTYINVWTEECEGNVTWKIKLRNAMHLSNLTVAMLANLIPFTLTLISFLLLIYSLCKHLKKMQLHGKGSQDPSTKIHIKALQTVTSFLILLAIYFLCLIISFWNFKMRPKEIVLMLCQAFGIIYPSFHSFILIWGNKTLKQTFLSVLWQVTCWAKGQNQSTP
Assay type: cell-based
Description: as §1, §2, §3, §4, §5, §6, §7, §8
With `COc1c2occc2cc2ccc(=O)oc12` [Compound 4, xanthotoxin] the “Activity on TAS2R49 (in words)” value was “responded; also recorded: able to activate” and the EC50 was 12 µM.

Same assay, conditions: single dose, qualitative
With `C[C@@H]1O[C@@H](OC[C@H]2O[C@@H](Oc3c(-c4ccc(O)c(O)c4)oc4cc(O)cc(O)c4c3=O)[C@H](O)[C@@H](O)[C@@H]2O)[C@H](O)[C@H](O)[C@H]1O` [Compound 1, rutin] the TAS2R49 screening result was “−”.
For `C=CC(C)(C)c1cc2cc3c(cc2oc1=O)OC(C(C)(C)OC(C)=O)C3` (centres unmarked) [Compound 2, rutamarin], the TAS2R49 screening result was “−”.
With `COc1c2ccoc2cc2oc(=O)ccc12` [Compound 3, bergapten] the TAS2R49 screening result was “−”.
With `COc1c2occc2cc2ccc(=O)oc12` [Compound 4, xanthotoxin] the TAS2R49 screening result was “++”.
In the case of `COc1c2ccoc2c(OC)c2oc(=O)ccc12` [Compound 5, isopimpinellin], the TAS2R49 screening result is reported as “−”.
With `COc1cc2nc3occc3c(OC)c2cc1OC` [Compound 7, kokusaginin] the TAS2R49 screening result was “−”.
`COc1ccc2c(OC)c3ccoc3nc2c1OC` [Compound 8, skimmianine] was tested, and the TAS2R49 screening result was “−”.
With `CCCCCCCCCC(C)=O` [Compound 9, 2-undecanone] the TAS2R49 screening result was “−”.
For `CCCCCCCC(C)=O` [Compound 10, 2-nonanone], the TAS2R49 screening result was “−”.

The compounds below were run against T3, TRPA1 (Homo sapiens, UniProt O75762) (assay: In vitro Fluo8-NW calcium assay (FLIPR) on HEK293T cells stably overexpressing TRPA1). Details: not given.
T3 construct: expressed in transfected cells
T3 sequence (O75762 whole entry): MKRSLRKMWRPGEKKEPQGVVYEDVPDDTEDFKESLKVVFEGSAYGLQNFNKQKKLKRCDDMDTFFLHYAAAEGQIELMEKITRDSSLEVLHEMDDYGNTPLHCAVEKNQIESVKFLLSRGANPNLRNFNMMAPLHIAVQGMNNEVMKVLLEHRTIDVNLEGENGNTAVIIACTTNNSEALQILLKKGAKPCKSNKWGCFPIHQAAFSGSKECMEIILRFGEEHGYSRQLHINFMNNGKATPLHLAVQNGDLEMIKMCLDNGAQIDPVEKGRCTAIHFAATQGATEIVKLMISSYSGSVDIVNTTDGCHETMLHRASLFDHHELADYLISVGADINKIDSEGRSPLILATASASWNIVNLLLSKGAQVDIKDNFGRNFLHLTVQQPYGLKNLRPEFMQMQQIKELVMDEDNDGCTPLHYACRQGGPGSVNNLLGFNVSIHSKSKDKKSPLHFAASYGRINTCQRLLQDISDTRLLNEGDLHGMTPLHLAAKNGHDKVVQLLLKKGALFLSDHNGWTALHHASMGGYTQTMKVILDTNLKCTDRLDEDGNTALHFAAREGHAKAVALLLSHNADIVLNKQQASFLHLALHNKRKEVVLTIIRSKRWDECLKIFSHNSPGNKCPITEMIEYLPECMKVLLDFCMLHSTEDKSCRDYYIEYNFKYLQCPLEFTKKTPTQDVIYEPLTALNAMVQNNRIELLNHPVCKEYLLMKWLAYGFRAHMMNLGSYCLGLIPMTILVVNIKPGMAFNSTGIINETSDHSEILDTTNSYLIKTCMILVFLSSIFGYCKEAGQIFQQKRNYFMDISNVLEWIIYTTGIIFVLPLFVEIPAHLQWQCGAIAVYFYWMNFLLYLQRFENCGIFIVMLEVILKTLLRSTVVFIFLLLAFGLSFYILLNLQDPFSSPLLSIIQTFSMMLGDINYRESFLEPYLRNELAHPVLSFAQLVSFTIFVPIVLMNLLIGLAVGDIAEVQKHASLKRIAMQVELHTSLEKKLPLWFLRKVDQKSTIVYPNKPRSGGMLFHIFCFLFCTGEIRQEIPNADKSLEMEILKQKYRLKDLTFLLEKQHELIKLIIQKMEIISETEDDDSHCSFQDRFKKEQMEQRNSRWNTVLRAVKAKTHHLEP
Assay type: cell-based
Description: Pure phytochemicals were submitted to in vitro assays with a platform of twenty cloned receptors of the bitter taste TAS2R family and four receptors of the TRP family related to the perception of taste and somatosensory sensations. All experiments have been repeated three times, each time with four replicates.
as §2, §3, §4, §5
(§9) For TRP platform experiments, cells were cultured in MEM/EBSS medium (ECB2071L EuroClone, Milan, Italy) plus 10% (v/v) fetal bovine serum (FBS) (26400-044 Gibco, Karlsruhe, Germany) and 1% (v/v) Pen/Strep 10K/10K stock (17-602E Lonza, Basel, Switzerland). Stable cell lines were generated overexpressing each TRP channel, and clones were selected with 500 µg/mL of G418 (ant-gn-5 Invivogen, Karlsruhe, Germany). To analyze TRP receptor responses, cells were plated at a concentration of 20,000 cells/well in 384-well plates (GR-4330 Twin Helix srl, Milan, Italy). Cellular responses were measured 24 h after seeding.
(§10) For TRPA1-M8-V1-V4 experiments, a solution of Fluo8-NW calcium-sensitive dye (36316 AAT BioQuest, Sunnyvale, CA, USA) was prepared using the assaybuffer and diluting the kit components 1:2 according to the manufacturer’s instructions. Twenty-four hours after seeding, cells were incubated one hour at RT, loaded with 40 µL of Fluo8-NW solution for each well and incubated again for one hour at RT before data acquisition.
(§11) For TRPM5 experiments, cells were loaded 24 h after seeding with a Membrane Potential Dye (R8034 MDC) solution in assay buffer according to the manufacturer’s instructions and incubated at 37 °C for 1 h before acquisition. All experiments were performed using a fluorometric imaging plate reader (FLIPR^TETRA, Molecular Devices equipped with ICCD Camera from Stanford Photonics, INC, (Palo Alto, CA, USA) and kinetics were visualized with Molecular Devices’ Screenworks 3.0 (Sunnyvale, CA, USA).
as §8
With `C=CC(C)(C)c1cc2cc3c(cc2oc1=O)OC(C(C)(C)OC(C)=O)C3` (centres unmarked) [Compound 2, rutamarin] the “Activity on TRPA1 (in words)” value was “did not activate”.
For `COc1c2occc2cc2ccc(=O)oc12` [Compound 4, xanthotoxin], the “Activity on TRPA1 (in words)” value was “agonists”.
In the case of `COc1c2ccoc2c(OC)c2oc(=O)ccc12` [Compound 5, isopimpinellin], the “Activity on TRPA1 (in words)” value is reported as “agonists” and the EC50 is reported as ≥ 22.8 µM.

Same assay, conditions: concentration/response curve; values with ≥ estimated; n.d. = non detectable; read-out: EC50 TRPA1
With `COc1c2occc2cc2ccc(=O)oc12` [Compound 4, xanthotoxin] the EC50 was ≥ 19.7 µM.

Same assay, conditions: single dose, qualitative
With `C[C@@H]1O[C@@H](OC[C@H]2O[C@@H](Oc3c(-c4ccc(O)c(O)c4)oc4cc(O)cc(O)c4c3=O)[C@H](O)[C@@H](O)[C@@H]2O)[C@H](O)[C@H](O)[C@H]1O` [Compound 1, rutin] the TRPA1 screening result was “−”.
`C=CC(C)(C)c1cc2cc3c(cc2oc1=O)OC(C(C)(C)OC(C)=O)C3` (centres unmarked) [Compound 2, rutamarin] was tested, and the TRPA1 screening result was “−”.
With `COc1c2ccoc2cc2oc(=O)ccc12` [Compound 3, bergapten] the TRPA1 screening result was “−”.
`COc1c2occc2cc2ccc(=O)oc12` [Compound 4, xanthotoxin] was tested, and the TRPA1 screening result was “+”.
`COc1c2ccoc2c(OC)c2oc(=O)ccc12` [Compound 5, isopimpinellin] was tested, and the TRPA1 screening result was “+”.
`COc1cc2nc3occc3c(OC)c2cc1OC` [Compound 7, kokusaginin] was tested, and the TRPA1 screening result was “−”.
`COc1ccc2c(OC)c3ccoc3nc2c1OC` [Compound 8, skimmianine] was tested, and the TRPA1 screening result was “−”.
`CCCCCCCCCC(C)=O` [Compound 9, 2-undecanone] was tested, and the TRPA1 screening result was “−”.
In the case of `CCCCCCCC(C)=O` [Compound 10, 2-nonanone], the TRPA1 screening result is reported as “−”.

What follows are compounds tested against T4, TRPM8 (Homo sapiens, UniProt Q7Z2W7) (assay: In vitro Fluo8-NW calcium assay (FLIPR) on HEK293T cells stably overexpressing TRPM8). Details: not given.
T4 construct: expressed in transfected cells
T4 sequence (Q7Z2W7 whole entry): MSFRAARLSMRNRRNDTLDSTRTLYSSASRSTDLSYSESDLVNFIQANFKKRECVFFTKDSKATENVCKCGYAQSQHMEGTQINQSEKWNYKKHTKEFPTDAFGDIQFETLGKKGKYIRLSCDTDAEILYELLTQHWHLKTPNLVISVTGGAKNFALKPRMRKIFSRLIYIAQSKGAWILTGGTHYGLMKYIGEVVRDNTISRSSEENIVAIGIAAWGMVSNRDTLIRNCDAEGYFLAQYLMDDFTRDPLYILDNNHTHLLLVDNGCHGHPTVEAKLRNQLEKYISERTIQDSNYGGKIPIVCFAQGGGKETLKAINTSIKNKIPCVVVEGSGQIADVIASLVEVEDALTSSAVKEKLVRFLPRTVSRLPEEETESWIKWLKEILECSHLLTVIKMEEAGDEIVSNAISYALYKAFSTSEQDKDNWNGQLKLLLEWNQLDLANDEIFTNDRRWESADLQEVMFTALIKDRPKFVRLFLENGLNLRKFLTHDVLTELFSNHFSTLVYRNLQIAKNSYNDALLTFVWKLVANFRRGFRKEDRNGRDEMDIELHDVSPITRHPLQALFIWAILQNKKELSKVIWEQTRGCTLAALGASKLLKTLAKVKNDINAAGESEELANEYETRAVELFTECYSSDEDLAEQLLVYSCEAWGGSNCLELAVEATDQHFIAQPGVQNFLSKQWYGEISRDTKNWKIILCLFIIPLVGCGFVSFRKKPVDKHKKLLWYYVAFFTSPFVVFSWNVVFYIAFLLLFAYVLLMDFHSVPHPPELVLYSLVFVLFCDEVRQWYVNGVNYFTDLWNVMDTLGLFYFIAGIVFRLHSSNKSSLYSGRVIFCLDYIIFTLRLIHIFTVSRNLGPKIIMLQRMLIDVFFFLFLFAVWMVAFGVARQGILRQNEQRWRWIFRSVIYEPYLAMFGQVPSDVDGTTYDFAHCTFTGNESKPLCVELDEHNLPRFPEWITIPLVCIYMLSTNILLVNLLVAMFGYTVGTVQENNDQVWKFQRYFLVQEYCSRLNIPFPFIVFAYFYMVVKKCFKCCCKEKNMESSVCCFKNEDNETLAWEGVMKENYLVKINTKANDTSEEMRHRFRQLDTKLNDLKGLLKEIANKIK
Assay type: cell-based
Description: as §1, §2, §3, §4, §5, §9, §10, §11, §8
In the case of `C=CC(C)(C)c1cc2cc3c(cc2oc1=O)OC(C(C)(C)OC(C)=O)C3` (centres unmarked) [Compound 2, rutamarin], the “Activity on TRPM8 (in words)” value is reported as “strong antagonist”.

Same assay, conditions: single dose, qualitative
In the case of `C[C@@H]1O[C@@H](OC[C@H]2O[C@@H](Oc3c(-c4ccc(O)c(O)c4)oc4cc(O)cc(O)c4c3=O)[C@H](O)[C@@H](O)[C@@H]2O)[C@H](O)[C@H](O)[C@H]1O` [Compound 1, rutin], the TRPM8 screening result is reported as “−”.
For `COc1c2ccoc2cc2oc(=O)ccc12` [Compound 3, bergapten], the TRPM8 screening result was “−”.
`COc1c2occc2cc2ccc(=O)oc12` [Compound 4, xanthotoxin] was tested, and the TRPM8 screening result was “−”.
`COc1c2ccoc2c(OC)c2oc(=O)ccc12` [Compound 5, isopimpinellin] was tested, and the TRPM8 screening result was “−”.
In the case of `COc1cc2nc3occc3c(OC)c2cc1OC` [Compound 7, kokusaginin], the TRPM8 screening result is reported as “−”.
For `COc1ccc2c(OC)c3ccoc3nc2c1OC` [Compound 8, skimmianine], the TRPM8 screening result was “−”.
`CCCCCCCCCC(C)=O` [Compound 9, 2-undecanone] was tested, and the TRPM8 screening result was “−”.
For `CCCCCCCC(C)=O` [Compound 10, 2-nonanone], the TRPM8 screening result was “−”.

These compounds were tested on twenty TAS2R bitter taste receptors (assay: In vitro screening on the platform of twenty cloned TAS2R bitter taste receptors). Details: at the tested concentration.
Assay type: cell-based, human
Description: as §1, §3, §4, §5, §6, §7, §8
In the case of `C[C@@H]1O[C@@H](OC[C@H]2O[C@@H](Oc3c(-c4ccc(O)c(O)c4)oc4cc(O)cc(O)c4c3=O)[C@H](O)[C@@H](O)[C@@H]2O)[C@H](O)[C@H](O)[C@H]1O` [Compound 1, rutin], the “Response on the twenty TAS2R receptors (in words)” value (“Response” for short) is reported as “inactive”.
`COc1cc2nc3occc3c(OC)c2cc1OC` [Compound 7, kokusaginin] was tested, and the “Response” value was “did not respond”.
`CCCCCCCCCC(C)=O` [Compound 9, 2-undecanone] was tested, and the “Response” value was “inactive”.
With `CCCCCCCC(C)=O` [Compound 10, 2-nonanone] the “Response” value was “inactive”.

From paper PMC6331789, “Phytochemicals from Ruta graveolens Activate TAS2R Bitter Taste Receptors and TRP Channels Involved in Gustation and Nociception” (Molecules, 2015)
